Data as given in US9045401B2, “Methods for treating or ameliorating a melanoma and killing melanoma cells” (THE REGENTS OF THE UNIVERSITY OF CALIFORNIA, priority 2007, dated 2015).

System: A549 cells
Test: confocal microscopy of ceramide and caspase 8
Assay type: cell-based, human
Details: 300 nM, 30 minutes after treatment
Protocol: Confocal microscopy. […] After treatment, the cells were fixed 10 minutes at room temperature with 4% PFA, washed twice with PBS, permeabilized 2 minutes at room temperature with 0.1% triton in PBS and blocked for 30 minutes with sterile 2% BSA in PBS. The staining was performed at room temperature for 2 hours (h), with mouse monoclonal anti-human ceramide (Alexis) and rabbit anti-human caspase 8 (BD Pharmingen) antibodies followed by secondary goat anti-mouse ALEXA FLUOR568™ and goat anti-rabbit ALEXA FLUOR488™ antibodies (Invitrogen). The blue DNA binding dye TOPRO-3™ (Molecular Probes) was added together with the secondary antibodies. The cells were washed three times with PBS between the different incubation steps and the incubation with the secondary fluorescently labeled antibodies was performed in the dark. All antibodies were diluted in PBS. Confocal images were recorded on a Nikon ECLIPSE C1™ confocal microscope.

CCCCC/C=C\C/C=C\C/C=C\C/C=C\CCCC(=O)O [arachidonic acid, reference compound]
cell surface ceramide: absent
